Source: patent publication US11339130B1 (Blade Therapeutics, Inc., priority 2016, dated 2022)
Read-outs that look alike come from different tables or passages of the source.

Key:
[1] = test system: Calpain activity in SH-SY5Y cells (SBDP-150); assay: SH-SY5Y Spectrin western blot assay (SBDP-150 breakdown product, A23187-induced); format: cell-based; details: SH-SY5Y cells, read-out: SH-SY5Y Spectrin IC50
[2] = test system: Calpain activity in SH-SY5Y cells; assay: SH-SY5Y + AMC fluorescence assay (Suc-LLVY-AMC substrate); format: cell-based; details: read-out: SH-SY5Y + AMC IC50
Human Calpain 1/NS1 = target: T1, Human Calpain 1/NS1 (Homo sapiens, UniProt P07384); assay: Calpain inhibition continuous fluorescence (FRET) assay, Human Calpain 1/NS1; format: biochemical; details: read-out: Human Calpain 1/NS1 IC50
T1 sequence (P07384 1-714): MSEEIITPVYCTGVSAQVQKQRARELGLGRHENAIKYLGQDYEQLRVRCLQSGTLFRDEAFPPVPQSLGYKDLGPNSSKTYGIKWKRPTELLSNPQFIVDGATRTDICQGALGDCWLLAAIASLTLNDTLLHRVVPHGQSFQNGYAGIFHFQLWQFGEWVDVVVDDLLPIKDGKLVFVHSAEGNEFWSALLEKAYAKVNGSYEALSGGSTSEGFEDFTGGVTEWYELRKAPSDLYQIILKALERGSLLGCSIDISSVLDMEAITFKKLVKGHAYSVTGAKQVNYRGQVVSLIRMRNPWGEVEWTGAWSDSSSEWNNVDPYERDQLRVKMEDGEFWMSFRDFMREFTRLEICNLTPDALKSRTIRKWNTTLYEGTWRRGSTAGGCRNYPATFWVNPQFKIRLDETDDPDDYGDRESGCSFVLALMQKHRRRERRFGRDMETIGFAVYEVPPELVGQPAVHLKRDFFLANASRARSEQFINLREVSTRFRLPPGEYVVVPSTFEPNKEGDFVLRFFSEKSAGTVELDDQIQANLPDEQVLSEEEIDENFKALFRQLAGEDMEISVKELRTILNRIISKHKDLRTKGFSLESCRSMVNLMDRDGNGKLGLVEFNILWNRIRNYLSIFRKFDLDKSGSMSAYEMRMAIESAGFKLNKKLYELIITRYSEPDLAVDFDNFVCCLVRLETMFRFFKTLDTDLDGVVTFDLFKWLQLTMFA
T1 sequence (P04632 1-268 partner): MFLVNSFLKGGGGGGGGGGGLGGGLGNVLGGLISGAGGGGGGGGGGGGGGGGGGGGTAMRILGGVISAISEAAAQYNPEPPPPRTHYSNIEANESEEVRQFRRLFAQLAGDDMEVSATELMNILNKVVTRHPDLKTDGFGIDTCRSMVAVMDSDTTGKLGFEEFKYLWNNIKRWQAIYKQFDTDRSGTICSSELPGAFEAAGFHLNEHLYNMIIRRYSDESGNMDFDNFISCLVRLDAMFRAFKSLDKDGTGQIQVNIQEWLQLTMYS
Outline: (§1)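 Human calpains 1, 2 and 9 preincubated with inhibitor at 25 °C in 50 mM Tris pH 7.5, 100 mM NaCl, 1 mM DTT; reaction started with 5-FAM/QXL 520 FRET peptide plus CaCl2 for activation. Fluorescence (490/520 nm) followed 10 min; rates from 1-5 min slopes fitted to 4-parameter logistic for IC50.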

Human Calpain 9/NS1 = target: T2, Human Calpain 9/NS1 (Homo sapiens, UniProt O14815); assay: Calpain inhibition continuous fluorescence (FRET) assay, Human Calpain 9/NS1; format: biochemical; details: read-out: Human Calpain 9/NS1 IC50
T2 sequence (O14815 1-690): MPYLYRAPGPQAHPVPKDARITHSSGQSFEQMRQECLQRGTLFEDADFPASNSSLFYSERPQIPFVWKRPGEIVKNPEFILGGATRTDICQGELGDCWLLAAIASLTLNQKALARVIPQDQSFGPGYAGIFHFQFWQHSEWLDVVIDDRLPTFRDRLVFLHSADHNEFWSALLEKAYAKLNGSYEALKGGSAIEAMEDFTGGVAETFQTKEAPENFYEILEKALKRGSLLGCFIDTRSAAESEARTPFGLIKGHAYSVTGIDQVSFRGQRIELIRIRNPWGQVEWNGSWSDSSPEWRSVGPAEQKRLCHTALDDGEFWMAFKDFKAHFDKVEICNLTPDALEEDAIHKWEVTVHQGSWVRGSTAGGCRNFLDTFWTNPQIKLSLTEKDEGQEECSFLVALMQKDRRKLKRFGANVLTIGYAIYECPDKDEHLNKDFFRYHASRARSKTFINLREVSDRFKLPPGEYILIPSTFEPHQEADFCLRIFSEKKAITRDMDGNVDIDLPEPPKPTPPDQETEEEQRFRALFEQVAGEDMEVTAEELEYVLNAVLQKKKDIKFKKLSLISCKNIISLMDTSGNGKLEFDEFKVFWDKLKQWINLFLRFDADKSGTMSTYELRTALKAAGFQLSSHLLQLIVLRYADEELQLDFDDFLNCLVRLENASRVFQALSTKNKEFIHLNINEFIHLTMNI
T2 sequence (P04632 1-268 partner): T1 sequence (P04632 1-268 partner)
Outline: as §1

Human Calpain 2/NS1 = target: T3, Human Calpain 2/NS1 (Homo sapiens, UniProt P17655); assay: Calpain inhibition continuous fluorescence (FRET) assay, Human Calpain 2/NS1; format: biochemical; details: read-out: Human Calpain 2/NS1 IC50
T3 sequence (P17655 1-700): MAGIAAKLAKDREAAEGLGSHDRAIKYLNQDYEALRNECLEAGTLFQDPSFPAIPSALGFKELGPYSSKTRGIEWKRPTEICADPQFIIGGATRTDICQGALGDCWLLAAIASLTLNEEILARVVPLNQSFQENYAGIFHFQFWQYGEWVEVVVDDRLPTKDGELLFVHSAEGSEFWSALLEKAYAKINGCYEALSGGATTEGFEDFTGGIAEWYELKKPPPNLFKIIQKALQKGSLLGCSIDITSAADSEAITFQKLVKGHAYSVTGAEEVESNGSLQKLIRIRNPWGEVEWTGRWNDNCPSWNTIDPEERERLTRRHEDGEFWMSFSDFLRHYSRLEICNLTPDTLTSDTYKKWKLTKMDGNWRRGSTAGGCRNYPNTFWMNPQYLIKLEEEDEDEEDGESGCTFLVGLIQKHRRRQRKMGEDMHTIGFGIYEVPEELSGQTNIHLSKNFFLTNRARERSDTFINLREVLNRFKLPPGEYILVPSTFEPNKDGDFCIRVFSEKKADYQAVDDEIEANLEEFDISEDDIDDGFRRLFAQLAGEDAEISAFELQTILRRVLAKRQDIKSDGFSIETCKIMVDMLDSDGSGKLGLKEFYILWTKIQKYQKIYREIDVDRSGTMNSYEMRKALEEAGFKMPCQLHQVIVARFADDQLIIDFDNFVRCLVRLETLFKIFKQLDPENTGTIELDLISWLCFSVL
T3 sequence (P04632 1-268 partner): T1 sequence (P04632 1-268 partner)
Outline: as §1

[3] = Homo sapiens, A23187-induced SBDP-150, western blot

| Molecule | IC50 ([1]; Homo sapiens, Column D, A23187-induced SBDP-150) [µM] | IC50 ([2]; Column E) [µM] | IC50 (Human Calpain 1/NS1; Column A) [µM] | IC50 (Human Calpain 9/NS1; Column C) [µM] | IC50 [1, 3] [µM] | IC50 [2] [µM] | IC50 (Human Calpain 1/NS1) [µM] | IC50 (Human Calpain 9/NS1) [µM] | IC50 (Human Calpain 2/NS1) [µM] | IC50 ([1]; A23187-induced SBDP-150, western blot) [µM] |
| --- | --- | --- | --- | --- | --- | --- | --- | --- | --- | --- |
| Cc1nc(-c2cccc(F)c2)c(C(=O)N[C@@H](Cc2ccccc2)C(=O)C(N)=O)o1 [Compound 254, (S)—N-(4-amino-3,4-dioxo-1-phenylbutan-2-yl)-4-(3-fluorophenyl)-2-methyloxazole-5-carboxamide] | 10 to 25 | < 10 | < 3 | < 3 | – | – | – | – | – | – |
| NC(=O)C(=O)[C@H](Cc1ccccc1)NC(=O)c1cn(C(F)F)nc1-c1ccccc1 [Compound 379, (S)—N-(4-amino-3,4-dioxo-1-phenylbutan-2-yl)-1-(difluoromethyl)-3-phenyl-1H-pyrazole-4-carboxamide] | – | – | – | – | < 10 | < 10 | < 3 | < 3 | – | – |
| CCn1cc(C(=O)NC(Cc2ccccc2)C(=O)C(N)=O)c(-c2cccc(F)c2)n1 (stereo not shown) [Compound 470, N-(4-amino-3,4-dioxo-1-phenylbutan-2-yl)-1-ethyl-3-(3-fluorophenyl)-1H-pyrazole-4-carboxamide] | – | – | – | – | 10 to 25 | < 10 | < 3 | – | < 3 | – |
| Cn1cc(C(=O)NC(Cc2ccccc2)C(=O)C(N)=O)c(-c2ccc(C#N)nc2)n1 (stereo not shown) [Compound 481, N-(4-amino-3,4-dioxo-1-phenylbutan-2-yl)-3-(6-cyanopyridin-3-yl)-1-methyl-1H-pyrazole-4-carboxamide] | – | – | – | – | > 25 | – | < 3 | < 3 | < 3 | – |
| Cn1cc(C(=O)NC(Cc2ccccc2)C(=O)C(N)=O)c(Cc2ccccc2)n1 (stereo not shown) [Compound 483, N-(4-amino-3,4-dioxo-1-phenylbutan-2-yl)-3-benzyl-1-methyl-1H-pyrazole-4-carboxamide] | – | – | – | – | > 25 | – | > 10 | < 3 | 3 to 10 | – |
| Cn1cc(C(=O)NC(Cc2ccccc2)C(=O)C(N)=O)c(-c2cccc(C(F)(F)F)c2F)n1 (stereo not shown) [Compound 516, N-(4-amino-3,4-dioxo-1-phenylbutan-2-yl)-3-(2-fluoro-3-(trifluoromethyl)phenyl)-1-methyl-1H-pyrazole-4-carboxamide] | – | – | – | – | > 25 | – | < 3 | < 3 | < 3 | – |
| C#CCOCc1ccc(-c2nn(C)cc2C(=O)N[C@@H](Cc2ccccc2)C(=O)CF)c(F)c1 [Compound 521, (S)—N-(4-fluoro-3-oxo-1-phenylbutan-2-yl)-3-(2-fluoro-4-((prop-2-yn-1-yloxy)methyl)phenyl)-1-methyl-1H-pyrazole-4-carboxamide] | – | – | – | – | 10 to 25 | – | < 3 | 3 to 10 | < 3 | – |
| NC(=O)C(=O)C(Cc1ccccc1)NC(=O)c1cn(C(F)F)nc1-c1cc(F)cc(F)c1 (stereo not shown) [Compound 523, N-(4-amino-3,4-dioxo-1-phenylbutan-2-yl)-1-(difluoromethyl)-3-(3,5-difluorophenyl)-1H-pyrazole-4-carboxamide] | – | – | – | – | 10 to 25 | < 10 | < 3 | – | – | – |
| NC(=O)C(=O)C(Cc1ccccc1)NC(=O)c1cn(-c2cccc(F)c2)nc1-c1ccccc1 (stereo not shown) [Compound 528, N-(4-amino-3,4-dioxo-1-phenylbutan-2-yl)-1-(3-fluorophenyl)-3-phenyl-1H-pyrazole-4-carb oxamide] | – | – | – | – | > 25 | – | < 3 | < 3 | < 3 | – |
| NC(=O)C(=O)C(Cc1ccccc1)NC(=O)c1nsnc1-c1ccc2c(c1)OC(F)(F)O2 (stereo not shown) [Compound 599, N-(4-amino-3,4-dioxo-1-phenylbutan-2-yl)-4-(2,2-difluorobenzo[d][1,3]dioxol-5-yl)-1,2,5-thiadiazole-3-carboxamide] | – | – | – | – | > 25 | > 25 | – | < 3 | – | – |
| NC(=O)C(=O)C(Cc1ccccc1)NC(=O)c1cn(C(F)F)nc1-c1cc2ccccc2cn1 (stereo not shown) [Compound 608, N-(4-amino-3,4-dioxo-1-phenylbutan-2-yl)-1-(difluoromethyl)-3-(isoquinolin-3-yl)-1H-pyrazole-4-carboxamide] | – | – | – | – | > 25 | – | < 3 | < 3 | < 3 | – |
| Cc1nc(-c2cccc3c2OCO3)c(C(=O)NC(Cc2ccccc2)C(=O)C(N)=O)o1 (stereo not shown) [Compound 609, N-(4-amino-3,4-dioxo-1-phenylbutan-2-yl)-4-(benzo[d][1,3]dioxol-4-yl)-2-methyloxazole-5-c arboxamide] | – | – | – | – | < 10 | – | < 3 | < 3 | < 3 | – |
| NC(=O)C(=O)C(Cc1ccccc1)NC(=O)c1cn(C(F)F)nc1-c1cnc2ccccc2c1 (stereo not shown) [Compound 610, N-(4-amino-3,4-dioxo-1-phenylbutan-2-yl)-1-(difluoromethyl)-3-(quinolin-3-yl)-1H-pyrazole-4-carboxamide] | – | – | – | – | < 10 | – | < 3 | < 3 | < 3 | – |
| Cn1cc(C(=O)NC(Cc2ccccc2)C(=O)C(N)=O)c(-c2ccnc3ccccc23)n1 (stereo not shown) [Compound 611, N-(4-amino-3,4-dioxo-1-phenylbutan-2-yl)-1-methyl-3-(quinolin-4-yl)-1H-pyrazole-4-carboxamide] | – | – | – | – | 10 to 25 | – | < 3 | < 3 | < 3 | – |
| (S)—N-(4-(((1H-benzo[d]imidazol-5-yl)methyl)amino)-3,4-dioxo-1-phenyl butan-2-yl)-3-methyl-5-phenylisoxazole-4-carboxamide [Compound 493] | – | – | – | – | – | – | < 3 | 3 to 10 | < 3 | > 25 |
